Consider two substances from patent US4959356A, “Porphyrins for boron neutron capture therapy” (The United States of America as represented by the United …, priority 1989, dated 1990).

Like-named read-outs stand apart in the source and are kept apart here.

Data set [1] concerns tumor cell. Conditions: in vitro; cited from earlier work.
For data set [2], the system named is transplanted Harding-Passey melanomas. Also on record: species or system BALB/c mice. Conditions: mouse, in vivo. Here is the method: The porphyrins of the present invention were tested for biodistribution and tumor uptake. BALB/c mice carrying transplanted Harding-[…] melanomas subcutaneously on the thigh or abdomen were given six intraperitoneal 0.5 mL injections over two days. The injection solutions contained 1 mg of compound/mL which is a total dose of 3 mg/mouse (approx. 150 μg porphyrin/g body weight or 32.2 μg B/g body weight). The compounds of formula II were completely water soluble and were allowed a 2 day clearance period post injection. The boron content was assayed by prompt gamma analysis using the gamma ray from the ^10 B(n,α)^7 Li reaction. Counts from the […] prompt-.tau.-ray are detected and analyzed using a narrow collimated thermal neutron beam from the Medical Research Reactor at Brookhaven National Laboratory. In this method the mice are dissected and whole organs or tissue samples (0.20-1.0 g) are measured for their boron content. […] Table 1 provides data for both the free base (compound of formula II wherein X is 2H) as well as the zinc chelate (compound of formula II wherein X is Zn), while Table 2 provides data for the free base. […] The long retention of porphyrins in tumor tissue can be exploited by waiting at least 4 days after it has cleared out of the blood before irradiation.

As to Na2 B12 H11 SH [BSH], the “retention in tumor cell” value in data set [1] is on record as “does not stay in the tumor cell but is easily washed out”.

For “dipotassium 2,4-bis-[2-(1,2-dicarbaundecaborate(-1))ethenyl]deuteroporphyrin IX [FREE BASE]”, in data set [2], the “boron in the normal brain (in words)” value is recorded as “only a small amount of boron in the normal brain”; the “crossing of the blood-brain barrier” value is reported as “does not cross the blood-brain barrier”; the “retention of boron in tumor and clearance from blood (in words)” value is reported as “retention of boron in the tumor with clearance from the blood over time”; the “tumor to blood ratio (comparison)” value is listed as “higher for the free base”. Moreover, the “uptake of boron into the tumor (in words)” value in data set [2] was “substantial uptake of boron into the tumor”. Further, the “tumor to blood ratio” value in data set [2] (2880 min) is given as “approximately 1:1”. Besides, the “tumor to blood ratio” value in data set [2] (5760 min) is “approx. 5:1”. In addition, in data set [2] (ip, 48 h), the uptake in blood was found to be 15.3 ± 1.5 μgB/g TISSUE, the uptake in brain turned out to be 2.0 μgB/g TISSUE, the uptake in kidney came to 16.8 μgB/g TISSUE and the uptake in liver turned out to be 38.0 ± 11.9 μgB/g TISSUE. Moreover, in data set [2] (ip, 48 h), the uptake in lung is given as 20.8 μgB/g TISSUE, the uptake in muscle stood at 3.9 μgB/g TISSUE, the uptake in spleen is reported as 8.5 μgB/g TISSUE and the uptake in tumor is on record as 18.7 ± 3.4 μgB/g TISSUE.
